From patent publication US6124328A, “Methods and compositions for stimulating neurite growth” (Vertex Pharmaceuticals Incorporated, priority 1997, dated 2000) come the findings set out here.

The structures appear in SMILES notation. pKi: −log10 of the molar value.

FKBP12, sequence (P62942 whole entry): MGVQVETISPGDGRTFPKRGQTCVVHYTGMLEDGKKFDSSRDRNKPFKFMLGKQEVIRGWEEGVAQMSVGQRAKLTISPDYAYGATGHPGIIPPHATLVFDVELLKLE

One experiment concerns the target FKBP12 (Homo sapiens, UniProt P62942). Nature of the experiment: FKBP12 Binding Assay: inhibition of FKBP rotomase activity (cis-N-succinyl-Ala-Ala-Pro-Phe-p-nitroanilide / chymotrypsin), apparent Ki. Format: biochemical. The note with it: Table 1a, formula Ia, compound 0.1 nM-10 μM. The source says:
Preferably, the assay measures inhibition of FKBP12 rotomase activity. Such an assay has also been described by M. W. Harding et al., supra and by J. J. Siekierka et al., supra. In this assay the isomerization of an artificial substrate--N-succinyl-Ala-Ala-Pro-Phe-p-nitroanilide--is followed spectrophotometrically. The assay includes the cis form of the substrate, FKBP12, the inhibitor and chymotrypsin. Chymotrypsin is able to cleave p-nitroanilide from the trans form of the substrate, but not the cis form. Release of p-nitroanilide is measured.
In this assay various quantities of FKBP12 binding compound (0.1 nM-10 μM) were added to cis-N-succinyl-Ala-Ala-Pro-Phe-p-nitroanilide in the presence of FKBP12 and chymotrypsin. FKBP12 converts the cis form of the substrate to the trans form. This allows chymotrypsin to cleave p-nitroanilide from the substrate. Release of p-nitroanilide was measured spectrophotometrically.
In the case of `O=C(Cc1ccccc1[N+](=O)[O-])C(=O)N1CCCC[C@H]1C(=O)OCc1ccccc1` [Ia B=Benzyl, D=2-Nitrobenzyl, n=2], the pKi was 4.59.

Still in this experiment, the particulars now being: Table 1c, formula Ic, compound 0.1 nM-10 μM.
As for `CCOC(=O)CN(Cc1ccccc1)C(=O)C(=O)OC`, the pKi was under 2.92.

Staying with this experiment, now noted: Table 2, formula II', compound 0.1 nM-10 μM.
In the case of `COc1cc(C(=O)C(=O)N2CCCC[C@H]2C(=O)OC(c2cc(OCc3ccncc3)c(OCc3ccncc3)c(OCc3ccncc3)c2)C(C)C)cc(OC)c1OC` (stereo partly shown) [compound 116], the pKi is 7.89.

As to `COc1ccc(C(=O)C(=O)N2CCCC[C@H]2C(=O)OC(CCCc2ccccc2)c2cccc(C(=O)c3ccncc3)c2)cc1C/C=C/c1ccccc1` (stereo partly shown) [compound 98], the pKi was 6.42. Same read-out and setting: next, `C=CCOCC#CC(CCCc1ccccc1)OC(=O)[C@@H]1CCCCN1C(=O)C(=O)c1cc(OC)c(OC)c(OC)c1` (stereo partly shown) [compound 46]: 8.30. For `C=CCC(OC(=O)[C@@H]1CCCCN1C(=O)C(=O)c1cc(OC)c(OC)c(OC)c1)c1cc(OCc2ccncc2)c(OCc2ccncc2)c(OCc2ccncc2)c1` (stereo partly shown) [compound 76], the pKi was 7.85. Take `COc1cc(C(=O)C(=O)N2CCCC[C@H]2C(=O)OC(c2cccnc2)c2cccc(OCc3ccncc3)c2)cc(OC)c1OC` (stereo partly shown) [compound 63]: the pKi was 7.89. Still for that read-out and setting: next, `COc1cc(C(=O)C(=O)N2CCCC[C@H]2C(=O)OC(C)c2cc(OCc3ccccc3)cc(OCc3ccccc3)c2)cc(OC)c1OC` (stereo partly shown) [compound 49]: 5.47; `C=CCOCCC(CCCc1ccccc1)OC(=O)[C@@H]1CCCCN1C(=O)C(=O)c1cc(OC)c(OC)c(OC)c1` (stereo partly shown) [compound 50]: 7.96. On the same count and under the same terms, next, `COc1ccc(C(=O)C(=O)N2CCCC[C@H]2C(=O)OC(CCCc2ccccc2)c2cccc(C(=O)c3ccncc3)c2)cc1OCc1ccccc1` (stereo partly shown) [compound 96]: 7.60; `C=CCC(OC(=O)[C@@H]1CCCCN1C(=O)C(=O)c1cc(OC)c(OC)c(OC)c1)c1cc(OCc2ccncc2)c(OCc2ccncc2)c(OCc2ccncc2)c1` (stereo partly shown) [compound 118]: 7.92; `COc1cc(C(=O)C(=O)N2CCCC[C@H]2C(=O)OC(CCCc2ccccc2)CCCc2ccc(C(=O)N3CCN(C)CC3)cc2)cc(OC)c1OC` (stereo partly shown) [compound 57]: 8.25.

For the compound `COc1ccc(CCC(CCCc2ccccc2)OC(=O)[C@@H]2CCCCN2C(=O)C(=O)c2cc(OC)c(OC)c(OC)c2)cc1` (stereo partly shown) [compound 13], the pKi was 8.46. On the same count and under the same terms, next, `COc1cc(C(=O)C(=O)N2CCCC[C@H]2C(=O)OC(CCCc2ccccc2)c2ccc(OCc3ccncc3)c(C(=O)N3CCOCC3)c2)cc(OC)c1OC` (stereo partly shown) [compound 68]: 8.70; `COc1cc(C(=O)C(=O)N2CCCC[C@H]2C(=O)OC(CCCc2ccccc2)CCCc2ccc(C(=O)N3CCSCC3)cc2)cc(OC)c1OC` (stereo partly shown) [compound 55]: 8.62. The same measure, in the same setting: with `COc1cc(C(=O)C(=O)N2CCCC[C@H]2C(=O)OC(CCCc2ccccc2)CCCc2ccc(C(=O)NCc3ccccc3)cc2)cc(OC)c1OC` (stereo partly shown) [compound 54] the figure was 8.80; with `COc1cc(C(=O)C(=O)N2CCCC[C@H]2C(=O)OC(CCCc2cccnc2)CCCc2cccnc2)cc(OC)c1OC` [compound 106], 8.43. On the same count and under the same terms, next, `COc1cc(C(=O)C(=O)N2CCCC[C@H]2C(=O)OC(CCCc2ccccc2)CCCc2ccc(C(=O)Nc3ccccn3)cc2)cc(OC)c1OC` (stereo partly shown) [compound 60]: 8.70; `C=CC(OC(=O)[C@@H]1CCCCN1C(=O)C(=O)c1cc(OC)c(OC)c(OC)c1)c1cc(OCc2ccncc2)c(OCc2ccncc2)c(OCc2ccncc2)c1` (stereo partly shown) [compound 79]: 8.64. As to `COc1cc(C(=O)C(=O)N2CCCC[C@H]2C(=O)OC(CCCc2ccccc2)CCCc2ccccn2)cc(OC)c1OC` (stereo partly shown) [compound 20], the pKi was 8.19. On to `COc1ccc(C(=O)C(=O)N2CCCC[C@H]2C(=O)OC(CCCc2ccccc2)c2ccc(C(=O)c3ccncc3)cc2)cc1OCc1ccccc1` (stereo partly shown) [compound 100], for which the pKi is under 5.30. The same measure, in the same setting: next, `COc1cc(C(=O)C(=O)N2CCCC[C@H]2C(=O)OC(CCCc2cccnc2)c2cccnc2)cc(OC)c1OC` (stereo partly shown) [compound 61]: 8.00. Consider `COc1ccc(C(=O)C(=O)N2CCCC[C@H]2C(=O)OC(CCCc2ccccc2)c2cccc(OCc3ccncc3)c2)cc1OC` (stereo partly shown) [compound 93], for which the pKi is 8.12.

On to `COc1cc(C(=O)C(=O)N2CCCC[C@H]2C(=O)OC(CCCc2ccccc2)CCCc2ccc(C(=O)N(C)C)cc2)cc(OC)c1OC` (stereo partly shown) [compound 43], for which the pKi is 8.30. Regarding `COc1cc(C(=O)C(=O)N2CCCC[C@H]2C(=O)OC(CCCc2ccccc2)CCC(C)c2ccccc2)cc(OC)c1OC` (stereo partly shown) [compound 32], the pKi is 7.70. For `COc1cc(C(=O)C(=O)N2CCC[C@H]2C(=O)OC(COCc2ccccc2)COCc2ccccc2)cc(OC)c1OC` [compound 107], the pKi is 4.12. On the same count and under the same terms, with `COc1cc(C(=O)C(=O)N2CCCC[C@H]2C(=O)OC(C)c2cc(OCc3ccsc3)c(OCc3ccsc3)c(OCc3ccsc3)c2)cc(OC)c1OC` (stereo partly shown) [compound 82] the figure was under 5.30; with `COc1cc(C(=O)C(=O)N2CCCC[C@H]2C(=O)OC(C)c2ccc(OCc3ccncc3)c(OCc3ccncc3)c2OC(C)C)cc(OC)c1OC` (stereo partly shown) [compound 84], 7.27; with `COc1cc(C(=O)C(=O)N2CCCC[C@H]2C(=O)OC(CCCc2ccccc2)CCCc2ccc(C(=O)N3CCN(Cc4ccccc4)CC3)cc2)cc(OC)c1OC` (stereo partly shown) [compound 58], 7.52. On the same count and under the same terms, next, `CCCC(OC(=O)[C@@H]1CCCCN1C(=O)C(=O)c1cc(OC)c(OC)c(OC)c1)c1cc(OCc2ccncc2)c(OCc2ccncc2)c(OCc2ccncc2)c1` (stereo partly shown) [compound 81]: 8.30. Still for that read-out and setting: next, `COc1cc(C(=O)C(=O)N2CCCC[C@H]2C(=O)OC(CCCc2ccccc2)CCCc2ccc(C(=O)N3CCCCC3)cc2)cc(OC)c1OC` (stereo partly shown) [compound 47]: 8.15; `COc1cc(C(=O)C(=O)N2CCCC[C@H]2C(=O)OC(CCCc2ccccc2)c2cccc(C(=O)c3cccnc3)c2)cc(OC)c1OC` (stereo partly shown) [compound 91]: 7.62.

As for `COc1cc(C(=O)C(=O)N2CCCC[C@H]2C(=O)OC(CCCc2ccccc2)c2ccc(OCc3ccncc3)c(OCc3ccncc3)c2OCc2ccncc2)cc(OC)c1OC` (stereo partly shown) [compound 67], the pKi was 7.34. For `COc1cc(C(=O)C(=O)N2CCCC[C@H]2C(=O)OC(C)c2ccc(OCc3ccncc3)c(OCc3ccncc3)c2)cc(OC)c1OC` (stereo partly shown) [compound 66], the pKi is 7.46. The same measure, in the same setting: with `COc1cc(C(=O)C(=O)N2CCCC[C@H]2C(=O)OC(CCCc2ccccc2)CCCn2cnc3ccccc32)cc(OC)c1OC` (stereo partly shown) [compound 15] the figure was 8.30.

Regarding `COc1cc(C(=O)C(=O)N2CCCC[C@H]2C(=O)OC(C)c2cc(OCc3ccccc3)c(OCc3ccccc3)c(OCc3ccccc3)c2)cc(OC)c1OC` (stereo partly shown) [compound 90], the pKi was 5.59. On the same count and under the same terms, next, `COc1cc(C(=O)C(=O)N2CCCC[C@H]2C(=O)OC(CCCc2ccccc2)CCCc2cccc(C(=O)N3CCOCC3)c2)cc(OC)c1OC` (stereo partly shown) [compound 52]: 8.82.

Take `C=CCOc1cc(C(=O)C(=O)N2CCCC[C@H]2C(=O)OC(CCCc2ccccc2)c2cccc(C(=O)c3ccncc3)c2)ccc1OC` (stereo partly shown) [compound 97]: the pKi is 7.77.

In the case of `COc1cc(C(=O)C(=O)N2CCCC[C@H]2C(=O)OC(CCCc2ccccc2)c2cccc(C(=O)c3ccncc3)c2)cc(OC)c1OCc1ccccc1` (stereo partly shown) [compound 94], the pKi was 7.60. The same measure, in the same setting: next, `CCCC(OC(=O)[C@@H]1CCCCN1C(=O)C(=O)c1cc(OC)c(OC)c(OC)c1)c1cc(OCc2ccncc2)c(OCc2ccncc2)c(OCc2ccncc2)c1` (stereo partly shown) [compound 80]: 7.77; `COc1cc(C(=O)C(=O)N2CCCC[C@H]2C(=O)OC(CCCc2ccccc2)c2cccc(OCc3ccncc3)c2)cc(OC)c1OC` (stereo partly shown) [compound 64]: 8.85. Still for that read-out and setting: with `C=CC(OC(=O)[C@@H]1CCCCN1C(=O)C(=O)c1cc(OC)c(OC)c(OC)c1)c1cc(OCc2ccncc2)c(OCc2ccncc2)c(OCc2ccncc2)c1` (stereo partly shown) [compound 78] the figure was 7.14; with `COc1cc(C(=O)C(=O)N2CCC[C@H]2C(=O)OC(C)c2cc(OCc3ccncc3)c(OCc3ccncc3)c(OCc3ccncc3)c2)cc(OC)c1OC` (stereo partly shown) [compound 87], 6.44; with `CC(C)(C)C(=O)C(=O)N1CCC[C@H]1C(=O)OC(CCCc1ccccc1)CCCc1cccnc1` (stereo partly shown) [compound 105], 6.47. On the same count and under the same terms, with `COc1cc(C(=O)C(=O)N2CCCC[C@H]2C(=O)OC(CCCc2ccccc2)c2ccc(C(=O)c3ccncc3)cc2)cc(OC)c1OCc1ccccc1` (stereo partly shown) [compound 99] the figure was 4.82; with `COc1ccc(C(=O)C(=O)N2CCCC[C@H]2C(=O)OC(CCCc2ccccc2)c2ccccc2)cc1OCc1ccccc1` (stereo partly shown) [compound 103], 4.62; with `C=CCOC/C=C/C(CCCc1ccccc1)OC(=O)[C@@H]1CCCCN1C(=O)C(=O)c1cc(OC)c(OC)c(OC)c1` (stereo partly shown) [compound 51], 8.55.

On to `C=CCOCCCCC(CCCc1ccccc1)OC(=O)[C@@H]1CCCCN1C(=O)C(=O)c1cc(OC)c(OC)c(OC)c1` (stereo partly shown) [compound 45], for which the pKi is 8.15. The same measure, in the same setting: with `COc1cc(C(=O)C(=O)N2CCCC[C@H]2C(=O)OC(C)c2cc(OCc3ccncc3)c(OCc3ccncc3)c(OCc3ccncc3)c2)cc(OC)c1OC` (stereo partly shown) [compound 69] the figure was 7.44; with `COc1cc(C(=O)C(=O)N2CCCC[C@H]2C(=O)OC(CCCc2ccccc2)c2ccc(OCc3ccncc3)c(OCc3ccncc3)c2)cc(OC)c1OC` (stereo partly shown) [compound 65], 8.39.

For `COc1cc(C(=O)C(=O)N2CCCC[C@H]2C(=O)OC(C)c2ccc(OCc3ccncc3)c(OCc3ccncc3)c2OC(C)C)cc(OC)c1OC` (stereo partly shown) [compound 85], the pKi is 8.46.

Take `COc1cc(C(=O)C(=O)N2CCCC[C@H]2C(=O)OC(c2cc(OCc3ccncc3)c(OCc3ccncc3)c(OCc3ccncc3)c2)C(C)C)cc(OC)c1OC` (stereo partly shown) [compound 115]: the pKi is 9.41.
